Reference: BindingDB's records for doi:10.1111/j.1747-0285.2005.00317.x (Abbott Laboratories, 2006)

What follows are compounds tested against T1, UDP-N-acetylmuramoyl-tripeptide--D-alanyl-D-alanine ligase (Streptococcus pneumoniae (strain ATCC BAA-255 / R6), UniProt Q8DNV6) (assay: Inhibition Assay).
T1 sequence (Q8DNV6 whole entry): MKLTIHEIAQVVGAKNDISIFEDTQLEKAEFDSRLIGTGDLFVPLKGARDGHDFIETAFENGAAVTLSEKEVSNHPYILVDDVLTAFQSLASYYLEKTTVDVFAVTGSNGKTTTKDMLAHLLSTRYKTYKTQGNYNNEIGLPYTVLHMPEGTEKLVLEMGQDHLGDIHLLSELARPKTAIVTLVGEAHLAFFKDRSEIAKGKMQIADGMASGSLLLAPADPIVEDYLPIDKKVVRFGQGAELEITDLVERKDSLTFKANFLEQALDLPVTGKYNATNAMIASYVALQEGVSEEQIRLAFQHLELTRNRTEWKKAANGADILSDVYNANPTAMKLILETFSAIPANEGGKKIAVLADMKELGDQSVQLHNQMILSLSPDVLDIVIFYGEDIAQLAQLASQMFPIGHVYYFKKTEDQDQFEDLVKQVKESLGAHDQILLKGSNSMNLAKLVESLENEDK
Source text: Inhibition of D-Ala-D-Ala adding enzyme (MurF) from Streptococcus pneumoniase.

Structure (SMILES) | IC50
N#Cc1c(NC(=O)c2cc(S(=O)(=O)N3CCCCC3)ccc2Cl)sc2c1CCCC2 [MurF inhibitor, 5] | 2.5 µM
CCN(CC)S(=O)(=O)c1ccc(Cl)c(C(=O)Nc2sccc2C#N)c1 [MurF inhibitor, 12] | 151 µM
N#Cc1c(NC(=O)c2cc(S(N)(=O)=O)ccc2Cl)sc2c1CCC2 [MurF inhibitor, 6] | 78 µM
N#Cc1c(NC(=O)c2cc(S(=O)(=O)NCCCCO)ccc2Cl)sc2c1CCC2 [MurF inhibitor, 4] | 22 µM
N#Cc1cc(CCc2ccccn2)sc1NC(=O)c1cc(S(=O)(=O)N2CCOCC2)ccc1Cl [MurF inhibitor, 14] | 6 µM
CCN(CC)S(=O)(=O)c1ccc(Cl)c(C(=O)Nc2sc(Br)cc2C#N)c1 [MurF inhibitor, 13] | 12.6 µM
N#Cc1c(NC(=O)c2cc(S(=O)(=O)C3CCOCC3)ccc2Cl)sc2c1CCC2 [MurF inhibitor, 3] | 9 µM
CCN(CC)S(=O)(=O)c1cc(C(=O)Nc2sc3c(c2C#N)CCC(c2ccc(O)cc2)C3)c(Cl)cc1Cl (stereo not drawn) [MurF inhibitor, 15] | 0.07 µM
